{"source": "patent US10352936B2", "about": "“Use of tumor Fas expression to determine response to anti-cancer therapy” (ApopLogic Pharmaceuticals, Inc., priority 2011, dated 2019)", "system": "naturally occurring appendicular osteosarcoma", "assay": "Survival of dogs treated with neoadjuvant FasL plus standard of care versus carboplatin standard of care", "type": "in vivo, dog", "conditions": "whole treatment group", "description": "Without being bound to theory, the principle of this treatment was based on a 10-day delay of therapy. The rationale for a 10-day delay approach was based on our preclinical data showing that there was statistically significant immunologic protection in animals immunized 10 days before challenge, as well as on the practicality of any delay of therapy approach. The experimental therapy was performed on Day 1, and dogs were followed to assess local and/or systemic toxicity for 10 days. At the end of the investigational period, dogs were treated using standard-of-care for OS.\nThe treatment sequence was as follows: On Day 0—history, physical, CBC, biochemical profile, urinalysis, chest radiographs, +/− bone scan. On Day 1, lesion biopsy and intratumoral injection. On Days 3, 7, and 10, toxicity monitoring with physical exam, CBC, biochemical profile, urinalysis, lameness evaluation and quality of life assessment. Day 10, amputation of affected limb.\nPatient selection, treatment, and biological sample preparation were conducted as described in Example 1. Fifty seven dogs were enrolled in the study. Two dogs were diagnosed with intramedullary tumors that were not OS, two dogs were withdrawn from the study, two dogs had pre-existing metastasis, two were lost to follow up, and four died of other causes. The rest of the patients were followed until their death, which was then determined to be disease-related (“died of disease”) or unrelated to disease recurrence (“died of other causes”).\nTable 1 depicts disease free interval (DFI), overall survival (OS), and percentage of dogs alive at 200 days following treatment and amputation that were treated with standard of care (carboplatin (carbo) control) and treated with FasL. Additionally, the disease free interval and overall survival of those dogs which had inflammation scores of 1 (low inflammation) as determined by histopathologic evaluation (see Example 1) or inflammation scores of 2-3 (moderate to high inflammation) is depicted. […]", "data": [{"smiles": "[NH2][Pt]1([NH2])[O]C(=O)C2(CCC2)C(=O)[O]1", "note": "[Carbo control, carboplatin]", "values": [{"measurement": "Disease Free Interval", "result": 213}, {"measurement": "Overall Survival", "result": 231, "unit": "days"}, {"measurement": "% Alive at 200 Days", "setting": "200 days following treatment and amputation", "result": 56, "unit": "%"}]}]}
